Measurements as given in paper PMC3486515 (Investigational new drugs, 2010).
Where “and” joins values, the source holds several entries; their conditions need not be identical. Equal values may be shown once. Entries after “also recorded” stand apart in the source; their conditions may differ.

Key:
[1] = tested on: patients with advanced solid tumors
[2] = Plasma pharmacokinetics, LC/MS/MS, non-compartmental analysis
[3] = tested on: refractory solid tumors; conditions: 72-hr infusion schedule; cited from earlier work
[4] = tested on: IL-6; experiment: Serum cytokine levels by cytokine bead array and ELISA; conditions: prior to and after flavopiridol infusion
[5] = tested on: advanced solid tumors; experiment: Objective response by RECIST; type: in vivo, human
[6] = Flavopiridol protein binding in patient PK samples by micro-equilibrium dialysis; conditions: for concentration at 4 h: human, plasma, intravenous, Mean free flavopiridol plasma concentration at the end of the 4-hour infusion
[7] = tested on: refractory chronic lymphocytic leukemia (CLL); conditions: cited from earlier work
[8] = tested on: patients with advanced solid tumors; conditions: human, in vivo
[9] = All dose levels, 34 pts, first dose, mean ± SD
[10] = dose level 1, 1B (30+30 mg/m^2 bolus+infusion), 6 pts, first dose, mean ± SD
[11] = dose level 2, 2B (30+45 mg/m^2 bolus+infusion), 9 pts, first dose, mean ± SD
[12] = dose level 3 (30+60 mg/m^2 bolus+infusion), 9 pts, first dose, mean ± SD
[13] = dose level 4 (30+75 mg/m^2 bolus+infusion), 2 pts, first dose, mean ± SD
[14] = dose level −1, −1B (20+20 mg/m^2 bolus+infusion), 8 pts, first dose, mean ± SD

For `C[C@@H]1C[C@H]2[C@@H]3CCC4=CC(=O)C=C[C@]4(C)[C@@]3(F)[C@@H](O)C[C@]2(C)[C@@]1(O)C(=O)CO` [dexamethasone], the “Effect on frequency/incidence of CKRS” value ([1]; prophylactic dexamethasone 20 mg prior to bolus dose of flavopiridol) was “did not impact the frequency of CKRS; also recorded: did not impact the incidence of CKRS; also recorded: not associated with decreased occurrence of CKRS”.

In the case of `CN1CC[C@H](c2c(O)cc(O)c3c(=O)cc(-c4ccccc4Cl)oc23)[C@H](O)C1` [flavopiridol], the “Maximum-tolerated dose, bolus” value ([1]; 30-min bolus, weekly for 4 weeks on a 6-week cycle, patients with advanced solid tumors, dose level −1B) is reported as 20 mg/m^2, the “Maximum-tolerated dose, infusion” value ([1]; infusion over 4 hours after bolus, weekly for 4 weeks on a 6-week cycle, patients with advanced solid tumors, dose level −1B) is reported as 20 mg/m^2 and the “Deaths attributed to CKRS” value ([1]; on study) is reported as “One death on the study was attributed to CKRS”. The “MTD (bolus+infusion)” value ([1]; patients with advanced solid tumors) was 20+20 mg/m^2, the “Mean end-of-infusion concentration (C0.5)” value ([2]; 20 mg/m^2 bolus dose) was 910 ± 260 µM and the “Mean end-of-infusion concentration (C0.5)” value ([2]; 30 mg/m^2 bolus dose) was 1420 ± 660 µM. For the same compound, the “Dose proportionality of plasma concentrations (Cmax) and AUC” value ([2]; 5 doses from 40 to 105 mg/m^2) was “increased proportionally with dose; also recorded: proportional increases in Cmax and AUC”, the “AUCO-∞” value [2, 9] was 13.6 ± 7.0 hr x µM and the CL [2, 9] was 12.7 ± 6.3 L/hr/m^2. The “V2 (volume of distribution)” value [2, 9] was 241 ± 149 L/m^2, the “AUCO-∞” value [2, 10] was 13.2 ± 3.4 hr x µM and the CL [2, 10] was 11.9 ± 3.0 L/hr/m^2. For the same compound, the “V2 (volume of distribution)” value [2, 10] was 198 ± 82 L/m^2, the “AUCO-∞” value [2, 11] was 14.3 ± 6.8 hr x µM and the CL [2, 11] was 15.3 ± 5.8 L/hr/m^2. For the same compound, the Cmax [2, 11] was 1.79 ± 0.83 µM, the “V2 (volume of distribution)” value [2, 11] was 307 ± 155 L/m^2 and the “AUCO-∞” value [2, 12] was 16.6 ± 8.6 hr x µM. The CL [2, 12] was 16.5 ± 7.0 L/hr/m^2, the “V2 (volume of distribution)” value [2, 12] was 309 ± 168 L/m^2 and the “AUCO-∞” value [2, 13] was 20.8 hr x µM and 20.8 ± 5.6 hr x µM. The CL [2, 13] was 13.1 ± 3.6 L/hr/m^2, the Cmax [2, 13] was 2.71 ± 1.08 µM and the “V2 (volume of distribution)” value [2, 13] was 260 ± 28 L/m^2. The “AUCO-∞” value [2, 14] was 7.9 hr x µM and 7.9 ± 4.2 hr x µM, the CL [2, 14] was 6.1 ± 2.5 L/hr/m^2 and the “V2 (volume of distribution)” value [2, 14] was 117 ± 99 L/m^2. The AUC(0-inf) ([2]; human, plasma, intravenous, AUC0–∞, overall mean, all doses (40–105 mg/m^2), 34 patients) was 13.6 ± 7 µM·h, the half-life ([2]; human, plasma, intravenous, T1/2, All dose levels, 34 pts, first dose, mean ± SD) was 14.2 ± 8.4 h and the Tmax ([2]; human, plasma, intravenous, Tmax, All dose levels, 34 pts, first dose, mean ± SD) was 2.02 ± 1.87 h. For the same compound, the “Major dose-limiting toxicity (DLT)” value [3] was “Secretory diarrhea”, the IL-6 serum levels [4] was “associated with flavopiridol infusion” and the “Other serum cytokines (IL-2, IL-4, IL-10, TNF-α, IFNγ)” value [4] was “No other cytokines were associated with flavopiridol infusion”. The “Patients off study for progressive disease (PD)” value ([5]; 34 patients) was 18 patients, the “Antitumor (objective) responses” value ([5]; 34 patients with advanced solid tumors, RECIST) was “No antitumor responses were observed; also recorded: No objective responses were observed” and the “Patients with PD” value ([5]; after completing two cycles) was “seventeen”. For the same compound, the concentration at 4 h ([6]; patients who did not experience CKRS (N=20), cycle 1) was 0.02 ± 0.009 µM, the concentration at 4 h ([6]; patients with grade 1 or higher CKRS during cycle 1) was 0.035 ± 0.026 µM and the “Mean free flavopiridol AUC” value ([6]; patients with CKRS during cycle 1) was 0.318 ± 0.22 µM·h. For the same compound, the “Mean free flavopiridol AUC” value ([6]; patients without observed CKRS during cycle 1) was 0.215 ± 0.103 µM·h, the Partial response rate ([7]; PK-directed schedule, single agent, CLL) was 40% and the Response rate ([7]; phase II study, refractory CLL patients) was “approximately 50%”. The “MTD (bolus+infusion)” value ([7]; refractory CLL patients) was 30+50 mg/m^2, the “Maximum-tolerated dose (MTD), infusion” value ([7]; refractory CLL, 4-hr infusion) was 50 mg/m^2 and the “Maximum-tolerated dose (MTD), bolus” value ([7]; refractory CLL, 30-minute loading dose) was 30 mg/m^2. For the same compound, the “Adverse event: Deep venous Thrombosis” value [8] was 1, the “Adverse event: Diaphories” value [8] was 8 (24) N (%) and the “Adverse event: Dizziness” value [8] was 6 (35) N (%). The “Adverse event: Dysphagia” value [8] was 1, the “Adverse event: Dyspnea” value [8] was 5 and the “Adverse event: Elevated Alk Phos” value [8] was 2. The “Adverse event: Febrile neutropenia” value [8] was 1, the “Adverse event: Fever” value [8] was 4 (12) N (%) and the “Adverse event: Hyperbilrubinemia” value [8] was 4 (12) N (%). The “Adverse event: Hypercalcemia” value [8] was 1, the “Adverse event: Hypoxemia” value [8] was 2 and the “Adverse event: Nausea and/or vomiting” value [8] was 20 (59) N (%). For the same compound, the “Adverse event: Somonolence” value [8] was 4 (12) N (%), the “Adverse event: Tumor lysis syndrome” value [8] was 1 and the “Patients off study for grade 3 AEs” value [8] was 6 patients. The “Patients off study for grade 3 AST/ALT” value [8] was 2 n, the “Patients off study for grade 3 CKRS” value [8] was 4 n and the “Patients with CKRS” value [8] was 41%. For the same compound, the “Time to resolution of CKRS symptoms” value [8] was no more than 6 h.
